Measurements: patent US20260184702A1, “SYNTHESIS, PHARMACOLOGY AND USE OF NEW WATER-SOLUBLE AND SELECTIVE FMS-LIKE TYROSINE KINASE3 (FLT3) INHIBITORS” (Universität Regensburg, priority 2022, published 2026)
Converted amounts (≈) assume the structure as drawn.

How the values were obtained:
[1] = system: MONO-MAC-6 (acute monocytic leukemia); conditions: Sellmer et al. 2020; cited from earlier work
[2] = system: MONO-MAC-1 (acute monocytic leukemia); conditions: Sellmer et al. 2020; cited from earlier work
[3] = system: MOLM-13 (acute myeloid leukemia); conditions: Sellmer et al. 2020; cited from earlier work
[4] = Solubility test by UV-Vis spectroscopy of saturated solutions; type: physicochemical; conditions: for Solubility Ethanol [g/L] / Solubility Water [g/L]: saturated solution; for Solubility Water [g/L]: ultrapure water
Procedure, shortened: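 Solubility was measured by UV-Vis spectroscopy on an Agilent Cary 60 over 800-200 nm, using a scan rate of 300.0 nm/min, a 0.50 nm data interval, 0.10 s averaging time and a 10 mm cuvette. Filtered saturated supernatants were diluted into water:ethanol, read at the long-wave absorbance maximum against a calibration curve of at least 6 concentrations, in triplicate.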

[5] = system: subcutaneous MV4-11 CDX model; assay: In vivo efficacy study in subcutaneous MV4-11 CDX model in NOD/SCID mice; conditions: 50 mg/kg po daily 5 days
[6] = system: subcutaneous MV4-11 CDX model; conditions: female, NOD/SCID, mouse, in vivo, 5 days
[7] = system: EOL-1 (acute myeloid eosinophilic leukemia); conditions: Sellmer et al. 2020; cited from earlier work

CC(C)(C)c1cc(NC(=O)Nc2ccc(-c3cn4c(n3)sc3cc(OCCN5CCOCC5)ccc34)cc2)no1 [Quizartinib, reference compound]
IC50 [1]: 0.004 µM | IC50 [2]: 0.006 µM | IC50 [3]: 0.007 µM | solubility ([4]; DMSO, organic solvent or mixture, solvent DMSO, read-out: Solubility DMSO): 33.2 mg/mL (≈ 59.2 mM) | Solubility Ethanol [g/L] [4]: no or at most very poor solubility | Solubility Ethanol [g/L] ([4]; listed as AC220): Practical | Solubility Water [g/L] [4]: no or at most very poor solubility | Solubility Water [g/L] ([4]; listed as AC220): Practical | first death(s) (day of study) [5]: 600000 s | number of living subjects, day of study 5 ([5]; 5 mice): 5 | number of living subjects, day of study 6 ([5]; 5 mice): 5 | number of living subjects, day of study 8 ([5]; 5 mice): 3 | number of living subjects, day of study 13 ([5]; 5 mice): 3 | number of living subjects, day of study 26 ([5]; 5 mice): 3 | number of living subjects, day of study 36 ([5]; 5 mice): 3 | study day after which mice had to be sacrificed [6]: 6 days | IC50 [7]: 0.0001 µM
